Laboratory results: patent US20060094682A1, “Kinase inhibitors for the treatment of diabetes and obesity” (Odyssey Thera, Inc., priority 2004, published 2006)

What was measured:
[1] = biological target: Hck (Homo sapiens, UniProt P08631); conditions: cited from earlier work
[2] = system: human T cells; conditions: read-out: IC50 anti-CD3-stimulated tyrosine phosphorylation of human T cells; cited from earlier work
[3] = system: PPAR-[Gamma]:SRC-1 complexes; assay: PPAR-[Gamma]:SRC-1 fluorescence protein-fragment complementation assay (PCA), drug treatment; type: cell-based, human; conditions: HEK293 cells; for effect on PPAR-[Gamma]:SRC-1 complex: 10 micromolar PP3 or 1 micromolar PD 153035 for 6.5 hours prior to rosiglitazone for 1.5 hours
Excerpt: Reporter fragments for PCA were generated by oligonucleotide synthesis (Blue Heron Biotechnology, Bothell, Wash.). First, oligonucleotides coding for polypeptide fragments YFP[1]and YFP[2] […] Next, PCR mutagenesis was used to generate the mutant fragments IFP[1] and IFP[2]. […] The YFP[1], YFP[2], IFP[1] and IFP[2] fragments were amplified by PCR to incorporate restriction sites and a linker sequence, described below, in configurations that would allow fusion of a gene of interest to either the 5′- or 3′-end of each reporter fragment. […] Additionally, these vectors still retain the SV40 origin, allowing for episomal expression in cell lines expressing the SV40 large T antigen (e.g. HEK293T, Jurkat or COS).
Recombinants in the host strains DH5-alpha (Invitrogen, Carlsbad, Calif.) or XL1 Blue MR (Stratagene, La Jolla, Calif.) were screened by colony PCR, and clones containing inserts of the correct size were subjected to end sequencing to confirm the presence of the gene of interest and in-frame fusion to the appropriate reporter fragment. A subset of fusion constructs were selected for full-insert sequencing by primer walking. DNAs were isolated using Qiagen MaxiPrep kits (Qiagen, Chatsworth, Calif.). PCR was used to assess the integrity of each fusion construct, by combining the appropriate gene-specific primer with a reporter-specific primer to confirm that the correct gene-fusion was present and of the correct size with no internal deletions.
HEK293 cells were maintained in MEM alpha medium (Invitrogen) supplemented with 10% FBS (Gemini Bio-Products), 1% penicillin, and 1% streptomycin, and grown in a 37° C. incubator equilibrated to 5% CO2.

[4] = system: Src family kinases; conditions: cited from earlier work

Chain of Hck (P08631 whole entry, species assumed): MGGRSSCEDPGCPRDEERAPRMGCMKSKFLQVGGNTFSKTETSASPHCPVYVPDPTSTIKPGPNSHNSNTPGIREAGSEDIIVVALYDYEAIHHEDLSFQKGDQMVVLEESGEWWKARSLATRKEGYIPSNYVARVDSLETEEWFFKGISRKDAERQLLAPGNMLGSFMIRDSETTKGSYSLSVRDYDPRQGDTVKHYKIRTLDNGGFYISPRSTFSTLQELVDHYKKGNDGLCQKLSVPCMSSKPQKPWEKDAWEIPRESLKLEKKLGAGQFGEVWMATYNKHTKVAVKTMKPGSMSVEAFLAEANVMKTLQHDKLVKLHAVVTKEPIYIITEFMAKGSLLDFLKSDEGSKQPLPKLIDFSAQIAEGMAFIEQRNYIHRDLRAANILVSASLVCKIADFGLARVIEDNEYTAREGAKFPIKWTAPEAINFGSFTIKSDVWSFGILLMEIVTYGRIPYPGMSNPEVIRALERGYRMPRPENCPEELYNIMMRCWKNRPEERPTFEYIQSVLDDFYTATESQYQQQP

For “4-amino-5-(4-chlorophenyl)-7-(t-butyl)pyrazolo[3,4-d]pyrimidine [PP2]”, the IC50 [1] is given as 5 nM and the IC50 [2] is given as 600 nM.

In the case of CN(CCOc1ccc(CC2SC(=O)NC2=O)cc1)c1ccccn1 (stereo not drawn) [rosiglitazone], the “increase of fluorescence intensity of the PPAR-[Gamma]:SRC-1 PCA” value ([3]; 15 micromolar rosiglitazone for 90 minutes vs unstimulated) is reported as 6 fold.

In the case of Nc1ncnc2c1cnn2-c1ccccc1 [PP3, 4-Amino-7-phenylpyrazol[3,4-d]pyrimidine], the “activity against Src family kinases” value [4] is listed as “inactive” and the “effect on PPAR-[Gamma]:SRC-1 complex” value [3] is listed as “no effect”.

In the case of COc1cc2ncnc(Nc3cccc(Br)c3)c2cc1OC [PD153035, 4-[(3-Bromophenyl)amino]-6,7-dimethoxyquinazoline], the “effect on PPAR-[Gamma]:SRC-1 complex” value [3] is reported as “no effect”.
